Data reported in patent US20240336657A1, “G-ALPHA-S PEPTIDE INHIBITORS AND USES THEREOF” (The Regents of the University of California, priority 2021, published 2024).
Positions of bridges follow the written chain, without caps; N, C: chain ends. Non-standard residues stand in square brackets, D forms with d. Residues, ends and D or L forms follow the SMILES beside them.

Assays:
[1] = tested on: biotinylated Gαs WT and His-tagged Gβγ(C68S); assay: FRET based Gα/Gβγ interaction assay; assay type: binding, human; settings: Gαs/Gβγ versus Gαi/Gβγ
Method: When we compared our GD20-bound Gαs structure with another GDP-bound Gαs structure in complex with Gβγ (FIG. 20D) (Liu et al., 2019), we noticed that GD20 induces a significant conformational shift of the Gβγ binding surface, and GD20 occupies the Gβγ binding surface in a competitive manner (FIGS. 20E-20F). […] Finally, 2× stocks of cyclic peptides were added with the protein mixtures. After incubation at room temperature for 2 hour at room temperature. The plate was read on a TECAN Spark 20 M plate reader using the TR-FRET mode with the following parameters: Lag time: […], Integration time: […], Read A: Ex 320(25) nm (filter), Em 610(20) nm (filter), Gain 130, Read B: Ex 320(25) nm (filter), Em 665(8) nm (filter), Gain 165. FRET Signal was calculated as the ratio of [Read B]/[Read A].

[2] = Plasma stability assay in human plasma; assay type: in vitro ADME; settings: both sexes, pooled human plasma, 37° C., values represent 95% confidence intervals
Method: These assays were conducted by Pharmaron Beijing CO., Ltd. Cyclic peptides working solutions were prepared at 10 μM in DMEM with 10% FBS (Avantor, Cat #76294-180) or human plasma (Pooled, Male & Female, BioIVT, Cat #HMN666664). The assays were performed in duplicate. Vials were incubated at 37° C. at 60 rpm in a water bath and taken at designated time points including 0, 480, 1080 and 1440 min. For each time point, the initiation of the reaction was staggered so all the time points were terminated with cold acetonitrile containing internal standards (IS, 100 nM alprazolam, 200 nM labetalol, 200 nM Imipramine and 2 μM ketoplofen) at the same time. Samples were vortexed then centrifuged at 4° C. to remove proteins. The supernatants from centrifugation were diluted by ultra-pure H2O and used for LC-MS/MS analysis. All calculations were carried out using GraphPad Prism. Remaining percentages of parent compounds at each time point were estimated by determining the peak area ratios from extractedion chromatograms.

Gαs = Gαs (Homo sapiens, UniProt P63092); assay: Adenylyl cyclase activity assay in HEK293 cell membranes, β2AR stimulated by isoproterenol; assay type: biochemical; set-up: endogenous in cells; host or cells: HEK293 cell membranes; settings: GTP/GDP 500/50 μM, 2 hours preincubation, 40 μM isoproterenol, read-out: IC50, inhibition of ISO-stimulated Gαs activity (cAMP)
Method: We sought to test the efficacy of GN13 in B2-adrenergic receptor (β2AR) mediated second messenger stimulation in cell membranes. Membrane anchored GDP-bound Gαs is inhibited by Gβγ in the resting state. It can undergo GPCR mediated GDP to GTP exchange upon agonist stimulation (Weis and Kobilka, 2018). The presence of GN13 could potentially capture the newly generated GTP-bound Gαs and inhibit its activation (FIG. 17E). To test this idea, we incubated cell membranes prepared from HEK293 cells with GN13 and examined cAMP accumulation with or without stimulation of β2-adrenergic receptor (β2AR) by isoproterenol (ISO).
(§1) GN13 inhibition of Gαs proteins in HEK293 cell membranes (FIG. 17F and FIG. 18F).
(§2) a. Cell membrane preparation: HEK293cells, GNAS KO HEK293 cells were plated two day before transfection at a density of 1M cells per 10 cm plate. […] The protein concentrations were measured using BCA, and were normalized to 750 μg/mL. […] The cAMP concentrations were measured by the LANCE Ultra cAMP kit. […]
(§3) A cAMP standard curve was generated in the same plate using the 50 μM cAMP standard in the kit. […] 10 μL of each diluted sample was mixed with 5 μL of 4× Eu-cAMP tracer and 5 μL of 4× ULight-anti-cAMP in a white, opaque Optiplate-384 microplate, incubated for 1 hour at room temperature, and the time-resolved fluorescence resonance energy transfer (TR-FRET) signals were read on a Spark 20M plate reader. […]

WT Gαs = WT Gαs (Homo sapiens, UniProt P63092); assay: Adenylyl cyclase activity assay in membranes of GNAS KO HEK293 cells transfected with WT Gαs; assay type: biochemical; set-up: expressed in transfected cells; host or cells: GNAS KO HEK293 cells (membranes); settings: WT Gαs reintroduced by transient transfection
Source text: To further assess the cellular specificity of GN13, we designed a GN13-resistant Gαs mutant based on structural analysis. […] We reasoned that mutating this serine residue to a bulky residue should create a drug-resistant Gαs mutant that blocks the GN13-Gαs interaction but would have little effect on adenylyl cyclase activation. […] By contrast, when the drug resistant mutant Gαs S275L was reintroduced into GNAS KO cells, the inhibitory effect of GN13 was abolished (FIG. 3I), providing further evidence that the observed pharmacological activity is due to GN13 binding to the switch II/α3 pocket in Gαs.
as §1, §2, §3

Gαs, sequence (P63092 whole entry): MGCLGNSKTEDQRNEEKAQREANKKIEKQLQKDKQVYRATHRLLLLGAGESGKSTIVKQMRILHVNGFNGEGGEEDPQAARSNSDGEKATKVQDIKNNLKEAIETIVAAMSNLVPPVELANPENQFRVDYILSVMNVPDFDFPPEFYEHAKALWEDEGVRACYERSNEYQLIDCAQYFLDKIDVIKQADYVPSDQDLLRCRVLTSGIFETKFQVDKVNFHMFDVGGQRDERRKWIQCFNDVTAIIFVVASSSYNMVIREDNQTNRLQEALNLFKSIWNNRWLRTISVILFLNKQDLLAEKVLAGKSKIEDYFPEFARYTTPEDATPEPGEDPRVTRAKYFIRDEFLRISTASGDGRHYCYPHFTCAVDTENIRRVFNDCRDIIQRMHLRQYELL
WT Gαs, sequence (P63092 whole entry): as above

Row | Compound | selectivity for Gαs than Gαi in the FRET assay [1] [fold] | half-life at 10 μM [2] [h] | IC50 (Gαs) [µM] | inhibition of isoproterenol-mediated cAMP production in cell membranes (WT Gαs)
1 | CC[C@H](C)[C@@H]1NC(=O)[C@H](CC(C)C)NC(=O)[C@@H](Cc2ccc(O)cc2)NC(=O)CSC[C@@H](C(=O)NCC(N)=O)NC(=O)[C@@H]2CCCN2C(=O)[C@H](CC(C)C)NC(=O)[C@H](CC(N)=O)NC(=O)[C@H](CC(C)C)NC(=O)[C@H](C)NC(=O)[C@H](Cc2c[nH]c3ccccc23)NC(=O)[C@H](CCC(N)=O)NC(=O)[C@H](CCCNC(=N)N)NC(=O)[C@H](Cc2ccccc2)NC(=O)[C@H]([C@@H](C)O)NC1=O [GD20-F10L] ({CH2CO}-[dY]LITFRQWALNLPCG-NH2; thioether N-14) | 100 | 7.16 to 12.7 |  | 
2 | CC[C@H](C)[C@@H]1NC(=O)[C@H](C)NC(=O)[C@H](Cc2ccc(O)cc2)NC(=O)[C@H](C(C)C)NC(=O)[C@H](CO)NC(=O)[C@H](CCC(=O)O)NC(=O)[C@H](Cc2ccccc2)NC(=O)[C@@H](Cc2ccc(O)cc2)NC(=O)CSC[C@@H](C(=O)NCC(N)=O)NC(=O)[C@H](CC(C)C)NC(=O)[C@H]([C@@H](C)O)NC(=O)CNC(=O)[C@H](Cc2c[nH]c3ccccc23)NC1=O [GN13] ({CH2CO}-[dY]FESVYAIWGTLCG-NH2; thioether N-13) |  |  | 12.2 ± 2.51 | able to inhibit
